Columns and labels:
[1] = system: total primary human T-cells; assay: IL-2 and IFN-γ release by stimulated total primary human T-cells (ELISA); type: cell-based; conditions: plate bound anti-CD3, with and without CD28 co-stimulation, lesser degree without co-stimulation
Protocol: Cells were stimulated with plate bound anti-CD3 (right) or anti-CD3/anti-CD28 (left) in presence or absence of the indicated concentration of Compound 23. Release of IL-2 or IFN-γ were assessed by ELISA. Compound 23 inhibition of Cbl-b enhanced IL-2 and IFN-γ secretion in primary human T cells stimulated with anti-CD3 antibodies, in both the presence and absence of CD28 co-stimulation, although to a lesser degree in the absence of co-stimulation.

[2] = system: 4T1 tumors; assay: 4T1 triple negative mammary carcinoma metastatic model with primary tumor resection, survival; type: in vivo, mice; conditions: oral 30 mg/kg daily
Source text: Another in vivo study evaluated the ability of Compound 23 treatment, started before the primary tumor resection, to eradicate 4T1 breast carcinoma metastatic disease. The 4T1 triple negative mammary carcinoma is a transplantable tumor cell line that is highly tumorigenic and invasive and, unlike most tumor models, spontaneously metastasizes from a primary tumor growing in the mammary gland to multiple distant sites including lymph nodes, blood, liver, lung, brain, and bone. Tumor cells are easily transplanted into the mammary glands so that the primary tumor grows in the anatomically relevant site. The progressive spread of 4T1 metastases to other organs is very similar to that of human mammary cancer. Animals die from disseminated metastatic disease regardless of resection of the primary tumor (Pulaski et al., 2000, Current Protocols in Immunology 39(1):20.2.1-20.2.16). […] Beginning on Day 7, tumor volumes were measured twice weekly until they reached a mean tumor volume of 145 mm^3 when the primary tumors were resected on Day 14 or 15 (dotted line). Median survival times were calculated for each group and body weights were monitored until the end of the study on Day 140. Body weights were measured twice weekly then once weekly starting Day 47. […] Statistical significance of differences in conditional survival between groups was evaluated using the Log-rank (Mantel-Cox) test. […] Median survival is reported as undefined for the Compound 23 group, as survival exceeds 50% at Day 140.

[3] = system: CT26 tumors; assay: nCounter Mouse PanCancer Immune Profiling Panel gene expression in CT26 tumors; type: in vivo, mice; conditions: vs vehicle
Source text: In this example, the gene expression changes induced in tumors from mice treated with Compound 23 studies were as investigated. To perform this assessment, the nCounter PanCancer Immune Profiling Panel was used, which is a multiplexed gene expression panel developed by NanoString Technologies that measures expression of 770 immune and cancer related genes (Eastel et al., 2019, Expert Review of Molecular Diagnostics, 19(7):591-598). This technology is a unique gene expression tool that covers many important features of the immune response in the tumor microenvironment and was used to facilitate the understanding of immune related changes in tumors treated with Compound 23.
In FIG. 4A, CT26 tumors were harvested after 4 doses and after 19 doses of Compound 23 or vehicle and gene expression was directly measured using the nCounter Mouse PanCancer Immune Profiling Panel. Analysis was performed using the nSolver 4.0 and the nCounter Advanced Analysis software comparing gene expression in Compound 23 to vehicle treated tumors. […] Statistical significance of differences in mean cell type scores between Compound 23 and vehicle treated groups was evaluated using Mann-Whitney test (* P≤0.05, ** P≤0.01, and *** P≤0.001).
(§1) In FIG. 4B, CT26 tumors were harvested after 4 treatment doses and gene expression was directly measured using the nCounter Mouse PanCancer Immune Profiling Panel. Analysis was performed using the nSolver 4.0 and the nCounter Advanced Analysis software comparing gene expression in Compound 23 to vehicle treated tumors. As indicated in the titles above each panel, scatter plots of individual Pathway Signature Scores of vehicle and Compound 23 treated tumors are shown. Statistical significance of differences in Pathway Signature Scores between Compound 23 and vehicle treated groups was evaluated using Mann-Whitney test (* P≤0.05, ** P≤0.01, and *** P≤0.001).
as §1, with “FIG. 4C,” for “FIG. 4B,”, “after 19” for “after 4”

[4] = system: 4T1 tumors; assay: Flow cytometry of tumor and blood from orthotopic 4T1 tumor-bearing mice; type: in vivo
Source text: Tumor and blood samples were harvested on Day 28 and analyzed by Flow Cytometry.

[5] = system: CT26 tumors; assay: CT26 tumor model with depleting antibodies for CD4+, CD8+ or NK cells; type: in vivo, mice; conditions: 30 mg/kg PO QD Day 9 to Day 25; tumor volume at Day 25
Source text: Tumor volume at Day 25 is indicated. CD8+ T-cell or NK cell depletion abrogates Compound 23 activity. Stats calculated with Mann-Whitney (Vehicle vs. Compound 23) or one-way ANOVA with Dunn's multiple comparisons test (Compound 23 vs. Depletion groups); * P≤0.05, ** P≤0.01, **** P≤0.0001 The efficacy of Compound 23 on tumors is linked to CD8+ T function and on NK cell function.

[6] = system: CT26 tumors; assay: CT26 colon carcinoma tumor model, tumor volume; type: in vivo, mice; conditions: oral 10 mg/kg or 30 mg/kg, Day 7 to Day 32; tumor volume at Day 25
Protocol: Mice bearing tumors on their left and right flanks were treated from Day 7 to Day 32 with oral Compound 23 at 10 mg/kg or 30 mg/kg or vehicle. Volumes at Day 25 are indicated. Statistics were calculated with one-way ANOVA and Dunn's multiple comparisons test ** P<0.01.

[7] = system: CT26 tumors; assay: Flow cytometry of tumor-infiltrating immune cells in CT26 tumors; type: in vivo, mice; conditions: 30 mg/kg daily PO, 19 doses
Protocol: CT26 tumors were harvested after 19 doses of Compound 23 or vehicle and tumor-infiltrating immune cell density and phenotype was assessed by Flow Cytometry.

C[C@H]1CCCN(Cc2cc3c(c(C(F)(F)F)c2)CN(c2cccc([C@]4(c5nncn5C)C[C@@H](C)C4)c2)C3=O)C1 [Compound 23]
IFN-γ secretion [1]: enhanced | IL-2 secretion [1]: enhanced | survival at Day 140 [2]: exceeds 50% | anti-tumor activity, metastatic triple negative breast tumor model 4T1 ([2]; Day 8 to Day 46): significant anti-tumor activity | median survival time compared to vehicle control ([2]; Day 8 to Day 46, primary tumor resected Day 14 or 15, Log-rank test): significantly increased | mice that remained tumor free until the end of the study ([2]; Day 140): 54% | median survival ([2]; study end Day 140): undefined | cytotoxic cells score ([3]; after 4 doses, oral 30 mg/kg daily, P=0.1061): clear trend of increased infiltration | tumor infiltrating lymphocytes (TIL) score ([3]; after 4 doses, oral 30 mg/kg daily, P=0.6679): clear trend of increased infiltration | T-cell score ([3]; after 4 doses, oral 30 mg/kg daily, P=0.7551): clear trend of increased infiltration | pathway scores of innate immune signaling: dendritic cell function, macrophage function, chemokine receptors and pathways ([3]; after 4 doses): significant gene expression changes | pathway scores of T-cell, B cell, NK cell and adaptive immune function ([3]; after 4 doses, trend for increases): not significant | cytotoxic cell score ([3]; after 19 doses, oral, P=0.0002): significant increases | tumor infiltrating lymphocytes (TIL) score ([3]; after 19 doses, oral, P=0.0044): significant increases | T-cell score ([3]; after 19 doses, oral, P=0.0098): significant increases | immune related pathway scores: dendritic cell, macrophage, T-cell, NK cell, B cell, interferon function, adaptive immunity, chemokine and receptor, cytokine and receptor ([3]; after 19 doses): significantly enhanced function | frequency of tumor gp70 antigen-specific CD8+ T-cells (AH1 Dextramer+ CD8+ T-cells) in 4T1 tumors ([4]; 30 mg/kg daily PO Day 9 to Day 28, FIG. 6A): increased | frequency of gp70 antigen-specific CD8+ T-cells with exhaustion phenotype (PD-1+ LAG3+) in 4T1 tumors ([4]; 30 mg/kg daily PO Day 9 to Day 28, FIG. 6B): decreased | frequency of circulating CD8+ T-cells with activated phenotype (PD-1+) in blood ([4]; 30 mg/kg daily PO Day 9 to Day 28, FIG. 6C): increased | frequency of circulating CD8+ T-cells with memory phenotype (CD44+CD27+CD127+) in blood ([4]; 30 mg/kg daily PO Day 9 to Day 28, FIG. 6D): increased | effect of CD8+ T-cell depletion on antitumor activity [5]: abrogates | effect of NK cell depletion (anti-asialo-GM1) on antitumor activity [5]: abrogates | anti-tumor activity, CT26 colon carcinoma model [6]: significant anti-tumor activity | number of tumor-infiltrating leukocytes (TIL) per gram of tumor ([7]; FIG. 7A): increased | frequency of total CD3+ T cells as a percentage of CD45+ leukocytes ([7]; FIG. 7B): increased | frequency of total CD8+ T cells as a percentage of CD45+ leukocytes ([7]; FIG. 7C): increased | number of total CD8+ T-cells per gram of tumor ([7]; FIG. 7D): increased | frequency of CD8+ T-cells that express the activation marker CD29 (CD29+) ([7]; FIG. 7E): increased | CD8+ T-cells to Tregs ratio ([7]; FIG. 7F): increased | CD8+ effector T-cells (PD1+) to Tregs ratio ([7]; FIG. 7G): increased | frequency of activated NK cells (CD11b+) that express Granzyme+ ([7]; FIG. 7H): increased | frequency of activated NK cells (CD27+CD11 b+) that express Granzyme+ ([7]; FIG. 7I): increased

Source: patent publication US20250009731A1, “TOLL-LIKE RECEPTOR THERAPY COMBINATIONS WITH CBL-B INHIBITOR COMPOUNDS” (NURIX THERAPEUTICS, INC., priority 2021, published 2025)
